Data: ChEMBL document CHEMBL1143265, “Discovery of thiophene inhibitors of polo-like kinase” (Bioorg Med Chem Lett, 2009)

Tests used:
[1] = system: HCT-116; assay: Antiproliferative activity against human HCT116 cells after 3 days by methylene blue stain technique; type: functional, cell-based; conditions: HCT-116, 72 h
[2] = target: Serine/threonine-protein kinase PLK1 (Homo sapiens, UniProt P53350); assay: Inhibition of PLK1 expressed in baculovirus-infected Trichoplusia-ni cells by scintillation proximity assay
Sequence of Serine/threonine-protein kinase PLK1 (P53350 whole entry): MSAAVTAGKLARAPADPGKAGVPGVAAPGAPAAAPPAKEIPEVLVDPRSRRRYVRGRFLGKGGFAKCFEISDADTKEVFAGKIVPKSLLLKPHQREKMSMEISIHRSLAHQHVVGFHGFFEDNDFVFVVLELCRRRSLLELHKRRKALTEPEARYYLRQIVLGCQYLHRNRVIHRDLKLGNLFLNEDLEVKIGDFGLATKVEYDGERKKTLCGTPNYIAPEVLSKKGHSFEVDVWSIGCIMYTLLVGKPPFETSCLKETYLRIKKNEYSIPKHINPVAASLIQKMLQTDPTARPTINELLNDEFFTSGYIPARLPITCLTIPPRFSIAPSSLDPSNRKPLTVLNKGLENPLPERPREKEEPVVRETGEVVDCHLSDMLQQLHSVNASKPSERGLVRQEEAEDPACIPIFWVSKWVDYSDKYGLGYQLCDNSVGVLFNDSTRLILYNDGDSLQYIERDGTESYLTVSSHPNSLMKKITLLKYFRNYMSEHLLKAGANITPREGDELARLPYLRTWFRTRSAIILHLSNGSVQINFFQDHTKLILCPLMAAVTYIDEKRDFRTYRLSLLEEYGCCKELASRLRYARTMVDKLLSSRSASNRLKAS

[3] = system: HN5; assay: Antiproliferative activity against human HN5 cells after 3 days by methylene blue stain technique; type: functional, cell-based; conditions: HN5, 72 h
[4] = AUC in mouse at 10 mg/kg, po; type: ADME, organism-based; set-up: dose 10 mg/kg, route oral; conditions: plasma
[5] = target: Proto-oncogene tyrosine-protein kinase Src (Homo sapiens, UniProt P12931); assay: Inhibition of Src
Sequence of Proto-oncogene tyrosine-protein kinase Src (P12931 2-536 limits assumed): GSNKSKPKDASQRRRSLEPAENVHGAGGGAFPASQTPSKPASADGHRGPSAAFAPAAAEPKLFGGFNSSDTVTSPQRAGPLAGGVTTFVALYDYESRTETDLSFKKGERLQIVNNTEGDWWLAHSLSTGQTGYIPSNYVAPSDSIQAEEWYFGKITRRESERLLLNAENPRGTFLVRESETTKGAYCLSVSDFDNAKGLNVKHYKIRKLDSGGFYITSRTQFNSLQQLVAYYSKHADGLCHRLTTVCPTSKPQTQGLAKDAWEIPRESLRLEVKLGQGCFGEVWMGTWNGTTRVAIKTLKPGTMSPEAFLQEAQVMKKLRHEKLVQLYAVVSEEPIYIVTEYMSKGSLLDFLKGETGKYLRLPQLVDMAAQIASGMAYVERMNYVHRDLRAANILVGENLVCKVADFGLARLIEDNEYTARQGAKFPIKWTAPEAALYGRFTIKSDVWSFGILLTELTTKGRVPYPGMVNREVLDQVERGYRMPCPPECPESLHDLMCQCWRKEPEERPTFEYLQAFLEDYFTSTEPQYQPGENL

[6] = system: PC-3; assay: Antiproliferative activity against human PC3 cells after 3 days by methylene blue stain technique; type: functional, cell-based; conditions: PC-3, 72 h
[7] = target: Epidermal growth factor receptor (Homo sapiens, UniProt P00533); assay: Inhibition of EGFR
Sequence of Epidermal growth factor receptor (P00533 whole entry): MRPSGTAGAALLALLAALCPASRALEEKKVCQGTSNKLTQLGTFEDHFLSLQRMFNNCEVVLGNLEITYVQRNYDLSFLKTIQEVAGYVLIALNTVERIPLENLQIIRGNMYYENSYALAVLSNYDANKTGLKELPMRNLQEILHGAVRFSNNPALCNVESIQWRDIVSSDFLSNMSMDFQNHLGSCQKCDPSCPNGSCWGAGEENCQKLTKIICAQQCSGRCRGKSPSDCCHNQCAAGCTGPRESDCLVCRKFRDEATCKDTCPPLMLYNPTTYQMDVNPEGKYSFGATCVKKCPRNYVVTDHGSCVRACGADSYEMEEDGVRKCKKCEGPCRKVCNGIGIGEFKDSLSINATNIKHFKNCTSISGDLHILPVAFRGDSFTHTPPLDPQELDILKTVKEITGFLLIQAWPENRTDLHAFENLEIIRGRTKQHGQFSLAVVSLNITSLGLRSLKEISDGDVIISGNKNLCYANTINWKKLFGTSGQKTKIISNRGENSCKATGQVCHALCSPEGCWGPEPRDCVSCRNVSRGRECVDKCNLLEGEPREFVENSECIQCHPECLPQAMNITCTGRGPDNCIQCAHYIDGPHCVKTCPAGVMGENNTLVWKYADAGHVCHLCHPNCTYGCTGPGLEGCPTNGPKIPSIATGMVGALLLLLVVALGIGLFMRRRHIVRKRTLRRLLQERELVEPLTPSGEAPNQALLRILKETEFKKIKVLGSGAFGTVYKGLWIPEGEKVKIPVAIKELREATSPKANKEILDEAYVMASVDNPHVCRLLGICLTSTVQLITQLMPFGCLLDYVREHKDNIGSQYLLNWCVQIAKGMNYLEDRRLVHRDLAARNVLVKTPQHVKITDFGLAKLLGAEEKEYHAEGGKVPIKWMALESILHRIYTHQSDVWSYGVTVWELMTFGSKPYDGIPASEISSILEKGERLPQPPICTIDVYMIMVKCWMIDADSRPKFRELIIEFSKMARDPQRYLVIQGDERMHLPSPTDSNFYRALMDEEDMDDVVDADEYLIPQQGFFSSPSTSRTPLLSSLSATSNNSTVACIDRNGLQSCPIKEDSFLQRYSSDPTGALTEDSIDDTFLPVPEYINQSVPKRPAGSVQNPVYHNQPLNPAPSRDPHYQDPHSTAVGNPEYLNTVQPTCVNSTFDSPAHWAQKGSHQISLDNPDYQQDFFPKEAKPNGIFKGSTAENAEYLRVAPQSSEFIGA

[8] = Volume of distribution at steady state in mouse at 6.7 mg/kg, iv; type: ADME, organism-based; set-up: dose 6.7 mg/kg, route intravenous; conditions: in vivo, read-out: Vdss
[9] = system: NCI-H460; assay: Antiproliferative activity against human H460 cells after 3 days by methylene blue stain technique; type: functional, cell-based; conditions: NCI-H460, 72 h
[10] = system: A549; assay: Antiproliferative activity against human A549 cells after 3 days by methylene blue stain technique; type: functional, cell-based; conditions: A549, 72 h
[11] = Inhibition of GSK3
[12] = system: RKO; assay: Antiproliferative activity against human RKO cells after 3 days by methylene blue stain technique; type: functional, cell-based; conditions: 72 h
[13] = system: MCF7; assay: Antiproliferative activity against human MCF7 cells after 3 days by methylene blue stain technique; type: functional, cell-based; conditions: MCF7, 72 h
[14] = target: Vascular endothelial growth factor receptor 3 (Homo sapiens, UniProt P35916); assay: Inhibition of VEGFR3
Sequence of Vascular endothelial growth factor receptor 3 (P35916 whole entry): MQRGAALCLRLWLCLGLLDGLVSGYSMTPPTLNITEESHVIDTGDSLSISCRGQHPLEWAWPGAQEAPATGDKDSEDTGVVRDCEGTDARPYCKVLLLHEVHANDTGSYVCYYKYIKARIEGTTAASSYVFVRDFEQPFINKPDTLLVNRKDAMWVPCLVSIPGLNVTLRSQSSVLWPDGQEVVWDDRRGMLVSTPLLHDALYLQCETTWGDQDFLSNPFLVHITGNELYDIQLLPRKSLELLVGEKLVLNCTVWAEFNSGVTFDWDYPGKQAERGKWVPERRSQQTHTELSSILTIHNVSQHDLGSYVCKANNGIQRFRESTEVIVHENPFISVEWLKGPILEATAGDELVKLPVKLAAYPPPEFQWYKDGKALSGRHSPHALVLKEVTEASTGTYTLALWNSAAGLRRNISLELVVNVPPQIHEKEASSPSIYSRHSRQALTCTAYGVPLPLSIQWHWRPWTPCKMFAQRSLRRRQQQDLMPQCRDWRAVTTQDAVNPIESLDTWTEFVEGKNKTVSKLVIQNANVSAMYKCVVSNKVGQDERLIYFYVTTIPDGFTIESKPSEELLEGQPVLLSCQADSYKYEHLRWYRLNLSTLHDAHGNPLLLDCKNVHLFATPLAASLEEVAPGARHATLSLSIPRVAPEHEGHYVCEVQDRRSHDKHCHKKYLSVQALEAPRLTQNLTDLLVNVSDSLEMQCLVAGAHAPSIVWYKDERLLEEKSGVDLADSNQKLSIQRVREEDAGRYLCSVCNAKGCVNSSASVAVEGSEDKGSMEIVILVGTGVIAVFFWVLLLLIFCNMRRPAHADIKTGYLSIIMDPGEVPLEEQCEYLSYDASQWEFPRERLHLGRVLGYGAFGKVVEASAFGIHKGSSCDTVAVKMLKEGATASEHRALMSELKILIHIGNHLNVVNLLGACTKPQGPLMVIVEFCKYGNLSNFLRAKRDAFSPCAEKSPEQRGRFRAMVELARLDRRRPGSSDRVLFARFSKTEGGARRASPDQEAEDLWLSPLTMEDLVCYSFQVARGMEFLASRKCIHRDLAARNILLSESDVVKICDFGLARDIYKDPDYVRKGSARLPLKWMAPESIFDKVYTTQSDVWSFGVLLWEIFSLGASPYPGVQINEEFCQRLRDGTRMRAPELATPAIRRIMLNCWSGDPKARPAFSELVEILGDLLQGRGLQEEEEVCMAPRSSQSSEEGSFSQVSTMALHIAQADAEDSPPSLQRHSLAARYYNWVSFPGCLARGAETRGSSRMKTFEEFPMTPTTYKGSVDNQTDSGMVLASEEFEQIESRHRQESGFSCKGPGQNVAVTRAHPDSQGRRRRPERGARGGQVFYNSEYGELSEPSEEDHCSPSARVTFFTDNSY

[15] = Clearance in mouse at 6.7 mg/kg, iv; type: ADME, organism-based; set-up: dose 6.7 mg/kg, route intravenous; conditions: in vivo
[16] = target: Mitogen-activated protein kinase 14 (Homo sapiens, UniProt Q16539); assay: Inhibition of p38alpha
Sequence of Mitogen-activated protein kinase 14 (Q16539 whole entry): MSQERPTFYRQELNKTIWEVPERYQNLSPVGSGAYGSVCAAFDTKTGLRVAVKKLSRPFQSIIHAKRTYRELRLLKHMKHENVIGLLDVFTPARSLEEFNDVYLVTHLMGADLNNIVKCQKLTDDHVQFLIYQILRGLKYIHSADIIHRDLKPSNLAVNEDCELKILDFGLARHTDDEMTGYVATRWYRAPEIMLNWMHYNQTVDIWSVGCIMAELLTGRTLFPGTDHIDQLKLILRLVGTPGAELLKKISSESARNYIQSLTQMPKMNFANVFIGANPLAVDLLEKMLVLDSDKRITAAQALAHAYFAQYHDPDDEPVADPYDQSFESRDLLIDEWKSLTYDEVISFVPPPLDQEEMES

[17] = Oral bioavailability in mouse at 10 mg/kg; type: ADME, organism-based; conditions: in vivo
[18] = system: NCI-N87; assay: Antiproliferative activity against human NCI-N87 cells after 3 days by methylene blue stain technique; type: functional, cell-based; conditions: NCI-N87, 72 h

SMILES	IC50 [1] [nM]	IC50 [2] [nM]	further results
COc1cc2ncn(-c3cc(OCc4ccc(S(C)(=O)=O)cc4)c(C(N)=O)s3)c2cc1OC	> 30000	75	–
COc1cc2ncn(-c3cc(OCc4ccccc4C(F)(F)F)c(C#N)s3)c2cc1OC	–	700	–
NC(=O)c1sc(-n2cnc3ccccc32)cc1OCc1cccc(Cl)c1	–	22	–
Cc1cccc(COc2cc(-n3cnc4ccccc43)sc2C(N)=O)c1	–	12	–
Cc1ccc(COc2cc(-n3cnc4ccccc43)sc2C(N)=O)cc1	–	70	–
COc1cc2ncn(-c3cc(OCC4CCCC4)c(C(N)=O)s3)c2cc1OC	3380	34	–
COc1cc2ncn(-c3cc(OCc4ccccc4Br)c(C(N)=O)s3)c2cc1OC	926	2	–
COc1cc2ncn(-c3cc(OCc4ccccc4C#N)c(C(N)=O)s3)c2cc1OC	2630	6	–
COc1cc2ncn(-c3cc(OCc4ccccc4OC(F)(F)F)c(C(N)=O)s3)c2cc1OC	1150	5	–
COc1ccccc1COc1cc(-n2cnc3cc(OC)c(OC)cc32)sc1C(N)=O	2110	8	–
COc1cc2ncn(-c3cc(OCc4ccccc4C(F)(F)F)c(C(=O)O)s3)c2cc1OC	7660	–	–
COc1ccc(COc2cc(-n3cnc4ccccc43)sc2C(N)=O)cc1	–	35	–
NC(=O)c1sc(-n2cnc3ccccc32)cc1OCc1ccccc1Cl	–	12	–
COc1ccc2ncn(-c3cc(OCc4ccccc4C(F)(F)F)c(C(N)=O)s3)c2c1	1230	2	–
COc1cc2ncn(-c3cc(OCc4ccccc4S(C)(=O)=O)c(C(N)=O)s3)c2cc1OC	5430	31	–
COc1ccccc1COc1cc(-n2cnc3ccccc32)sc1C(N)=O	–	12	–
COc1cc2ncn(-c3cc(OCc4cccc(N(C)C)c4)c(C(N)=O)s3)c2cc1OC	3470	31	–
COc1cc2ncn(-c3cc(OCc4ccncc4)c(C(N)=O)s3)c2cc1OC	21000	130	–
COc1cc2ncn(-c3cc(OCc4ccnc(Br)c4)c(C(N)=O)s3)c2cc1OC	1770	14	–
COc1cc2ncn(-c3cc(OCc4cccc(N)c4)c(C(N)=O)s3)c2cc1OC	2270	21	–
COc1cc2ncn(-c3cc(OCc4ccccc4)c(C(N)=O)s3)c2cc1OC	1090	12	–
COc1cc2ncn(-c3cc(OCc4ccsc4)c(C(N)=O)s3)c2cc1OC	1520	17	–
COc1cc2ncn(-c3cc(OCc4sccc4Cl)c(C(N)=O)s3)c2cc1OC	1480	2	–
NC(=O)c1sc(-n2cnc3ccccc32)cc1OCc1ccc(Cl)cc1	–	100	–
Cc1ccccc1COc1cc(-n2cnc3cc(Cl)ccc32)sc1C(N)=O	> 28000	21	–
NC(=O)c1sc(-n2cnc3ccccc32)cc1OCc1ccccc1	–	61	–
COc1cc2ncn(-c3cc(OCc4ccccc4C(F)(F)F)c(C(N)=S)s3)c2cc1OC	> 30000	6	–

SMILES	IC50 [1] [nM]	IC50 [2] [nM]	further results
COc1cc2ncn(-c3cc(OCc4ccco4)c(C(N)=O)s3)c2cc1OC	> 25000	27	–
NC(=O)c1sc(-n2cnc3ccccc32)cc1OCc1ccccc1F	–	14	–
COc1cc2ncn(-c3cc(OCc4cccc(C#N)c4)c(C(N)=O)s3)c2cc1OC	> 30000	99	–
COc1cc2ncn(-c3cc(OCc4ccccc4C(C)=O)c(C(N)=O)s3)c2cc1OC	2640	17	–
COc1ccc(COc2cc(-n3cnc4cc(OC)c(OC)cc43)sc2C(N)=O)cc1	12100	13	–
CS(=O)(=O)c1ccc2ncn(-c3cc(OCc4ccccc4C(F)(F)F)c(C(N)=O)s3)c2c1	2960	12	–
COc1ccc2c(c1)ncn2-c1cc(OCc2ccccc2C(F)(F)F)c(C(N)=O)s1	2700	8	–
COc1cc2ncn(-c3cc(OCCCc4ccccc4)c(C(N)=O)s3)c2cc1OC	7750	–	–
Cc1ccccc1COc1cc(-n2cnc3ccccc32)sc1C(N)=O	–	12	–
Cc1ccccc1COc1cc(-n2cnc3ccc(Cl)cc32)sc1C(N)=O	1690	4	–
COc1cc2ncn(-c3cc(OCc4ccoc4)c(C(N)=O)s3)c2cc1OC	19000	190	–
CS(=O)(=O)c1ccc2c(c1)ncn2-c1cc(OCc2ccccc2C(F)(F)F)c(C(N)=O)s1	> 30000	250	–
COc1cc2ncn(-c3cc(OCC4CCCCC4)c(C(N)=O)s3)c2cc1OC	3090	–	–
COc1cc2ncn(-c3cc(OCc4ccccc4C(F)(F)F)c(-c4nnn[nH]4)s3)c2cc1OC	> 30000	–	–
COc1cc2ncn(-c3cc(OCCc4ccccc4)c(C(N)=O)s3)c2cc1OC [GSK-204925A]	24100	–	–
COc1cc2ncn(-c3cc(OCc4cccs4)c(C(N)=O)s3)c2cc1OC [GSK-312948A]	1540	11	–
NC(=O)c1sc(-n2cnc3ccccc32)cc1OCc1ccccc1Br [GSK-1023156A]	–	11	–
COC(=O)c1sc(-n2cnc3cc(OC)c(OC)cc32)cc1OCc1ccccc1C(F)(F)F [GSK-1030058A]	–	> 1000	–
COc1cc2ncn(-c3cc(OCc4ccccc4C(F)(F)F)c(C(C)=O)s3)c2cc1OC [GSK-1030059A]	–	85	–
CNC(=O)c1sc(-n2cnc3cc(OC)c(OC)cc32)cc1OCc1ccccc1C(F)(F)F [GSK-1030061A]	–	> 1000	–
COc1cc2ncn(-c3cc(OCc4ccccc4C(F)(F)F)c(C(=O)N(C)C)s3)c2cc1OC [GSK-1030062A]	–	> 1000	–
COc1cccc(COc2cc(-n3cnc4ccccc43)sc2C(N)=O)c1 [GW804482X]	–	28	–
COc1cc2ncn(-c3cc(OCc4ccccc4C(F)(F)F)c(C(N)=O)s3)c2cc1OC [GW843682X]	699	2	IC50 [3]: 678 nM; AUC [4]: 489 ng·h/mL; IC50 [5]: > 30000 nM; IC50 [6]: 6820 nM; IC50 [7]: > 48000 nM; Vd [8]: 1.5 L/kg; IC50 [9]: 380 nM; IC50 [10]: 411 nM; IC50 [11]: > 15000 nM; IC50 [12]: 398 nM; IC50 [13]: 558 nM; IC50 [14]: 92 nM; clearance [15]: 47.4 mL/min/kg; IC50 [16]: > 15000 nM; bioavailability [17]: 14%; IC50 [18]: 601 nM
COc1cc2ncn(-c3cc(OCc4ccccc4Cl)c(C(N)=O)s3)c2cc1OC [GW852849X]	999	2	–
NC(=O)c1sc(-n2cnc3ccc(C(F)(F)F)cc32)cc1OCc1ccccc1Br [GW853606X]	3590	9	–
NC(=O)c1sc(-n2cnc3cc(C(F)(F)F)ccc32)cc1OCc1ccccc1Br [GW853609X]	> 30000	300	–
